The test system of one data set is A549 cell. Description: Cell viability assay (MTT assay), A549 cells. In kind it is cell-based. On the procedure:
(§1) A549 cell (ATCC number: CCL-185) was a non-small cell lung carcinoma cell line, expressing wild type EGFR and K-RAS mutation (G12S). H1975 cell (ATCC number: CRL-5908) was a non-small cell lung carcinoma cell line expressing EGFR L858R/T790M mutation. A549 and H1975 cells were cultured in a complete medium at 37° C., 5% CO2 within a humidified incubator (310/Thermo, Forma Scientific, Inc., Marietta, Ohio). The complete medium was RPMI-1640 medium (Gibco, Life Technologies, Grand Island, N.Y., USA) supplemented with 10% fetal bovine serum (FBS), penicillin (100 units/mL), streptomycin (100 μg/mL), and sodium bicarbonate.
(§2) The cells were plated in 96-well plates at a density of 1×10^4 cells/well for 16-20 hours. Thereafter, the cells in each well were treated by 0.1 mL of a treating agent for 24 hours. The treating agents for the wells were different in treating chemicals and their concentrations. The treating chemicals were Erlotinib, Erlotinib analogues (CE 1 to 6 and E1), and BSA-conjugated Erlotinib Analogue (E2). Next, the cells were washed with phosphate-buffered saline (PBS) and were further cultured with fresh complete medium for 2 days. Subsequently, the cells were incubated with 0.5 mg/ml of 3-(4,5-dimethylthiazol-2-yl)-2,5-diphenyltetrazolium bromide (MTT) in fresh complete medium for 4 hours, followed by removal of the medium and addition of dimethyl sulfoxide (DMSO, 0.1 mL) to thereby allow […]. The absorbance of the reduced MTT (formazan) was read on a microplate reader (VERSAmax, Molecular Devices Inc., CA) at 565 nm. […] Tables 1 and 2, and FIGS. 1 and 2 show cell viability values for A549 cell using different treating chemicals in different concentrations. Table 3 and FIG. 3 show cell viability values for H1975 cell using two treating chemicals in different concentrations.

In a further data set the test system is H1975 cell. The experiment in a line: Cell viability assay (MTT assay), H1975 cells. In kind it is cell-based. The conditions noted are these: treated 24 hours, cultured 2 more days, Table 3. The procedure: as §1, §2
(In general: Tetrazolium dyes change colour on reduction, which living cells bring about.)

The mark [1] stands for this setting: Homo sapiens, A549, 24 h, read-out: Cell viability (%).

The viability is the share of living cells, or the viability signal relative to a control.

Where two headings read alike, the source gives them in different places.

With `C#Cc1cccc(Nc2ncnc3cc(OC)c(OCc4ccccc4)cc23)c1` [CE1, 6-(benzyloxy)-N-(3-ethynylphenyl)-7-methoxyquinazolin-4-amine], in the data set with A549 cell (setting [1]), the viability at 5 µM came out at 79.9%, the viability at 10 µM was found to be 74.7%, the viability at 20 µM was found to be 73% and the viability at 40 µM amounted to 71.6%. Further, the viability at 60 µM in the data set on A549 cell (setting [1]) is 63.4%.
For the molecule `C#Cc1cccc(Nc2ncnc3cc(OC)c(OCCOC)cc23)c1` [CE2, N-(3-ethynylphenyl)-7-methoxy-6-(2-methoxyethoxy) quinazolin-4-amine], in the data set with A549 cell (setting [1]), the viability at 5 µM amounted to 69.5%, the viability at 10 µM was determined as 60.9%, the viability at 20 µM came out at 62.4% and the viability at 40 µM worked out at 64.5%. In addition, the viability at 60 µM in the data set with A549 cell (setting [1]) is 61.6%.
For `C#Cc1cccc(Nc2ncnc3cc(OCCOC(C)=O)c(OCCOC)cc23)c1` [CE3, 2-{[4-((3-ethynylphenyl)amino)-6-(2-methoxyethoxy)quinazolin-7-yl]oxy}ethyl acetate], in the data set with A549 cell (setting [1]), the viability at 5 µM stood at 79.3%, the viability at 10 µM amounted to 77.5%, the viability at 20 µM was determined as 70.1% and the viability at 40 µM was determined as 63%. In addition, the viability at 60 µM with A549 cell (setting [1]) amounted to 59.5%.
Regarding `C#Cc1cccc(Nc2ncnc3cc(OCCO)c(OCCOC)cc23)c1` [CE4, 2-{[4-((3-ethynylphenyl)amino)-6-(2-methoxyethoxy)quinazolin-7-yl]oxy}ethanol], in the data set on A549 cell (setting [1]), the viability at 5 µM amounted to 74.5%, the viability at 10 µM is 68.4%, the viability at 20 µM was 63.1% and the viability at 40 µM worked out at 60.7%. The viability at 60 µM with A549 cell (setting [1]) came to 57.8%.
Turning to `C#Cc1cccc(Nc2ncnc3cc(OCCOS(C)(=O)=O)c(OCCOC)cc23)c1` [CE5, 2-{[4-((3-ethynylphenyl)amino)-6-(2-methoxyethoxy)quinazolin-7-yl]oxy}ethyl methanesulfonate], in the data set with A549 cell (setting [1]), the viability at 5 µM stood at 73.7%, the viability at 10 µM turned out to be 67.2%, the viability at 20 µM is 56.1% and the viability at 40 µM came out at 57.9%. In addition, the viability at 60 µM with A549 cell (setting [1]) was found to be 60.7%.
For `C#Cc1cccc(Nc2ncnc3cc(OCCN)c(OCCOC)cc23)c1` [CE6, 7-(2-aminoethoxy)-N-(3-ethynylphenyl)-6-(2-methoxyethoxy) quinazolin-4-amine], in that order: 75.4%, 74.8%, 74.1%, 62.7% and 58.6%.
Turning to `C#Cc1cccc(Nc2ncnc3cc(OCCOC)c(OCCOC)cc23)c1` [Erlotinib, reference compound], the viability at 0.5 µM in the data set with A549 cell (Homo sapiens, A549, 24 h, read-out: Cell viability (%), A549 cell, treating chemical 0.5 μM, treated 24 hours, cultured 2 more days, Table 2) came out at 89.3%. The viability at 1 µM in the data set with A549 cell (Homo sapiens, A549, 24 h, read-out: Cell viability (%), A549 cell, treating chemical 1 μM, treated 24 hours, cultured 2 more days, Table 2) came to 89.3%. Moreover, the viability at 5 µM in the data set with A549 cell (Homo sapiens, A549, 24 h, read-out: Cell viability (%), A549 cell, treating chemical 5 μM, treated 24 hours, cultured 2 more days, Table 1) turned out to be 73.8%; in the data set with A549 cell (Homo sapiens, A549, 24 h, read-out: Cell viability (%), A549 cell, treating chemical 5 μM, treated 24 hours, cultured 2 more days, Table 2), 84.2%. The viability at 10 µM with A549 cell (Homo sapiens, A549, 24 h, read-out: Cell viability (%), A549 cell, treating chemical 10 μM, treated 24 hours, cultured 2 more days, Table 1) was 71.7%. The viability at 20 µM in the data set on A549 cell (Homo sapiens, A549, 24 h, read-out: Cell viability (%), A549 cell, treating chemical 20 μM, treated 24 hours, cultured 2 more days, Table 1) was 65.9%. Besides, in the data set on A549 cell (Homo sapiens, A549, 24 h, read-out: Cell viability (%), A549 cell, treating chemical 40 μM, treated 24 hours, cultured 2 more days, Table 1), the viability at 40 µM came out at 61.2%. In addition, in the data set on A549 cell (Homo sapiens, A549, 24 h, read-out: Cell viability (%), A549 cell, treating chemical 60 μM, treated 24 hours, cultured 2 more days, Table 1), the viability at 60 µM was found to be 58.5%. Also, the “Cell viability (%)” value in the data set with H1975 cell (treating chemical 0.5 μM) is on record as 98.4% ± 2.7; with H1975 cell (treating chemical 1 μM), 93.1% ± 2.5; in the data set with H1975 cell (treating chemical 5 μM) it was 75.8% ± 4.5.
Turning to `C#Cc1cccc(Nc2ncnc3cc(OCCI)c(OCCOC)cc23)c1` [Example E1, N-(3-ethynylphenyl)-7-(2-iodoethoxy)-6-(2-methoxyethoxy)quinazolin-4-amine], in the data set with A549 cell (A549 cells, Tables 1 and 2, FIGS. 1 and 2), the “Cell viability in comparison with the commercial available drug (Erlotinib)” value is given as “significantly lower cell viability”. In addition, in the data set with A549 cell (setting [1]), the viability at 5 µM was found to be 32.8%, the viability at 10 µM came to 30.3%, the viability at 20 µM stood at 26.3% and the viability at 40 µM worked out at 28%. Moreover, in the data set on A549 cell (setting [1]), the viability at 60 µM worked out at 24.3%.

Source of the values: patent US10251886B1, “4-anilinoquinazoline derivative and albumin conjugates thereof” (National Chiao Tung University, priority 2018, dated 2019).
